Among the test systems are NCI/ADR-RES; OVCAR-8; HCT-15; Hs-578T; RXF 393; T47D; MCF7; U-251; PC-3; 786-0; SF-539; UACC-257; SNB-75; M14; SNB-19; IGROV-1; HCT-116; UACC-62; SF-295.
Common to all, as to test: growth of human tumour cells (NCI), 48 h

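Dose response: 5 concentrations. Exposure: 48 h. Format: 96-well plates. Endpoint: linear interpolation; highest concentration if not reached. GI50 is the concentration that inhibits growth by half.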 Active and inactive are the calls of the source. Cut-off read from the data, not from the text of the source: active = GI50 up to about 1.1 µM and inactive = higher. A value given as a limit tells only on which side of the number the result lay.

Regarding `CO/N=C1/C(n2[nH]c(=O)n(-c3ccccc3)c2=O)C2C=CC1n1c(=O)n(-c3ccccc3)c(=O)n12` (stereo unspecified), the GI50 with NCI/ADR-RES is > 100 µM (inactive); with OVCAR-8 it was > 100 µM (inactive); in the experiment on HCT-15, greater than 100 µM; in the experiment on Hs-578T it was > 100 µM (inactive); in the experiment with RXF 393, > 100 µM (inactive); in the experiment on T47D it was > 100 µM (inactive). Besides, the GI50 in the experiment on MCF7, in the experiment on U-251, in the experiment on PC-3, with 786-0, with SF-539 and in the experiment with UACC-257 was > 100 µM (inactive) each time. The GI50 with SNB-75, with M14, in the experiment on SNB-19, in the experiment with IGROV-1, with HCT-116 and with UACC-62 was > 100 µM (inactive) in each case.
As for `Cc1ccc(S(=O)(=O)N2C[C@@H]3CC[C@]4(CO[Si](C)(C)C(C)(C)C)N[C@@H](c5ccccc5)[C@H]2[C@H]34)cc1`, the GI50 with NCI/ADR-RES was 25.9 µM (inactive); in the experiment with OVCAR-8, 39.7 µM (inactive); in the experiment with HCT-15, 24.7 µM; with Hs-578T, 27.4 µM (inactive); in the experiment on RXF 393, 14.5 µM (inactive); in the experiment on T47D, 8.18 µM (inactive). The GI50 is 28.6 µM (inactive) with MCF7; 46.5 µM (inactive) with U-251; 18.2 µM (inactive) with PC-3; 27.8 µM (inactive) in the experiment with 786-0; 32.4 µM (inactive) in the experiment with SF-539; 23.9 µM (inactive) with UACC-257. For the same compound, the GI50 in the experiment on M14 was 61.7 µM (inactive); in the experiment with SNB-19, 61.4 µM (inactive); with IGROV-1, 31.3 µM (inactive); with HCT-116, 12 µM (inactive); with SF-295, 24.9 µM (inactive); in the experiment on UACC-62, 56.4 µM (inactive).
As for `Nc1ncc(C=O)c(NCC2(CO)CCC2)n1`, the GI50 in the experiment on NCI/ADR-RES is 65.9 µM (inactive); in the experiment with OVCAR-8, 51.1 µM (inactive); in the experiment on HCT-15, 71.1 µM; with Hs-578T, 41.1 µM (inactive); in the experiment on RXF 393, 28.4 µM (inactive); in the experiment with T47D it was 14.8 µM (inactive). Also, the GI50 in the experiment with MCF7 is 23.9 µM (inactive); with U-251 it was 35.6 µM (inactive); in the experiment with PC-3, 82.4 µM (inactive); in the experiment with 786-0, > 100 µM (inactive); in the experiment with SF-539, 39.7 µM (inactive); with UACC-257, > 100 µM (inactive). The GI50 was 66.1 µM (inactive) in the experiment with SNB-75; 41.5 µM (inactive) with IGROV-1; 36.6 µM (inactive) with HCT-116; 36.8 µM (inactive) in the experiment on SF-295; 12.3 µM (inactive) with UACC-62.
Consider `COc1ccc(Nc2nc3ccccc3n3cccc23)cc1OC`, for which the GI50 in the experiment with NCI/ADR-RES was 17.4 µM (inactive); in the experiment on OVCAR-8, 15.9 µM (inactive); in the experiment on HCT-15, 13.6 µM; in the experiment with Hs-578T, 37.9 µM (inactive); in the experiment on RXF 393 it was 12.9 µM (inactive); in the experiment with T47D, 4.06 µM (inactive). In addition, the GI50 in the experiment on MCF7 is 16.1 µM (inactive); in the experiment with U-251, 16.9 µM (inactive); in the experiment with PC-3, 11.7 µM (inactive); with 786-0, 15.4 µM (inactive); in the experiment on SF-539, 16.6 µM (inactive); with UACC-257, 16 µM (inactive). Besides, the GI50 with M14 is 15.8 µM (inactive); in the experiment with SNB-19 it was 33.7 µM (inactive); with IGROV-1, 20.9 µM (inactive); in the experiment with HCT-116 it was 16.9 µM (inactive); in the experiment on SF-295, 13.2 µM (inactive); in the experiment with UACC-62, 14.3 µM (inactive).

(Values after ChEMBL document CHEMBL1201862, “PubChem BioAssay data set” (2004).)
